Paper PMC8151276, “An Integrated Approach toward NanoBRET Tracers for Analysis of GPCR Ligand Engagement” (Molecules, 2021)

Experiments:
Assay type in all cases: binding
[1] = molecular target: T1, ADRA2C (Homo sapiens, UniProt P18825); test: NanoBRET screen HiBiT-ADRA2C in HEK293
T1 construct: purchased Promega (in-house HiBiT-GPCR construct library, NanoBRET)
T1 sequence (P18825 1-462): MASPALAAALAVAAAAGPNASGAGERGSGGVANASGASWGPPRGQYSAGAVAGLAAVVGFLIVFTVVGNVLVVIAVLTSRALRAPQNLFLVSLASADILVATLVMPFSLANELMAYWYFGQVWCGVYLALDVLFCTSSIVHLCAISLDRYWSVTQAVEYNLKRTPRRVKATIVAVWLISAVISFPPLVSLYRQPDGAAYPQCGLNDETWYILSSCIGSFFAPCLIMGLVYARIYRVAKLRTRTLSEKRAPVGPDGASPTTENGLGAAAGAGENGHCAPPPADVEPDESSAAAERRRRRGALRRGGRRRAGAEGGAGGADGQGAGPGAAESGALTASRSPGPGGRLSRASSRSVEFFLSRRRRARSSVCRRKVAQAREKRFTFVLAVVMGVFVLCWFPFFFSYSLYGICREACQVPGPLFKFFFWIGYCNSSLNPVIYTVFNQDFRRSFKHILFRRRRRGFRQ
Method: (§1) Each tracer candidate was screened across the entire library of HiBiT-GPCR constructs using NanoBRET as the detection modality. As depicted in Figure 4A, the specificity of interactions was evaluated through decrease in BRET due to competitive displacement of a bound tracer by excess parental compound. Each tracer was analyzed for binding to each HiBiT-GPCR fusion in the absence and in the presence of competing parental compound. Briefly, HEK293 cells were transfected with HiBiT-GPCR constructs diluted into promoterless DNA to reduce expression and maximize translocation to the cell surface. Each tracer candidate was then screened at concentrations of 1 μM and 0.1 μM across cells expressing these fusions. Cells were treated for 1.5 h with tracer either alone or in the presence of 20 μM competing parental compound (i.e., control). BRET was measured upon addition of purified LgBiT and subsequent complementation with HiBiT genetically fused to a GPCR. The specificity of interactions was assessed through a decrease in BRET signal due to competitive displacement of the bound tracer. To further gauge the robustness of these interactions, the fold response over the control (i.e., BRETtracer/BRETcontrol) was calculated. We chose a 1.5-fold response, which translates to ≥7-fold signal over noise as the minimal threshold required to score an interaction as positive. […]. Below we highlight the screening results obtained for our exemplary fluorescent tracers based on Clozapine, Amitriptyline and AZD1283.
(§2) HiBiT-GPCR DNA constructs were diluted in 10 mM Tris pH 8 to a final concentration of 0.01 μg/μL, arrayed in 96-well plates and stored at −20 °C. For transfection, HEK293 cells were suspended in Opti-MEM (without phenol red) supplemented with 2% fetal bovine serum (Seradigm) and 100 units/mL penicillin–streptomycin (Gibco) at a final concentration of 220,000 cells/mL and dispensed into white 96-well plates at 90 μL/well. Subsequent transfections and screens were carried using an Agilent Bravo Automated Liquid Handling Platform. First, the 96-well HiBiT DNA arrays were diluted 25-fold in Opti-MEM (without serum or phenol red) to a final concentration of 0.0004 μg/μL and 20 μL of the diluted DNAs were transferred into new 96-well plates. Next, promoterless carrier DNA (1 μg/μL) was diluted 25-fold (0.04 μg/μL) and then dispensed into the diluted arrays at 20 μL/well. Following brief mixing, Viafect transfection reagent (Promega) diluted 16-fold into Opti-MEM was dispensed into the plates at 40 μL/well. After mixing by pipetting, plates were incubated for 10 min on the pipetting station deck. The DNA-transfection reagent complexes were then added to plates containing cells. To facilitate the screen, 10 μL of DNA-transfection reagent complexes were added in duplicates to the top 4 and bottom 4 rows, resulting in two identical 48-well arrays per plate. Plates with transfected cells were incubated for 18–20 h at 37 °C/5% CO2. A screen of each tracer across the entire library using two different concentrations requires duplicate plates of transfected cells. Depending on the number of tracers being screened, transfections can be scaled up using the same ratios. The next day, for each tracer, four 20× screening solutions in tracer dilution buffer (Promega) were prepared: two duplicates at final concentration of 20 μM and two duplicates at a final concentration of 2 μM. A competing unmodified compound was added to one of each duplicate at a final concentration of 400 μM. The four resulting solutions were diluted 4-fold in Opti-MEM without serum or phenol red to generate 5× solutions (5 µM and 0.5 µM tracer +/− 100 μM competing compound). To screen the library, a BioTek MultiFlo FX liquid dispenser was used to dispense 22.5 µL of tracer solution to the top 4 rows and 22.5 µL tracer + competing compound solution to the 4 bottom rows. Plates were briefly mixed on an orbital shaker and incubated for 1.5 h at room temperature. […]

[2] = molecular target: T2, HRH2 (Homo sapiens, UniProt P25021); test: NanoBRET screen HiBiT-HRH2 in HEK293
T2 construct: purchased Promega (in-house HiBiT-GPCR construct library, NanoBRET)
T2 sequence (P25021 whole entry): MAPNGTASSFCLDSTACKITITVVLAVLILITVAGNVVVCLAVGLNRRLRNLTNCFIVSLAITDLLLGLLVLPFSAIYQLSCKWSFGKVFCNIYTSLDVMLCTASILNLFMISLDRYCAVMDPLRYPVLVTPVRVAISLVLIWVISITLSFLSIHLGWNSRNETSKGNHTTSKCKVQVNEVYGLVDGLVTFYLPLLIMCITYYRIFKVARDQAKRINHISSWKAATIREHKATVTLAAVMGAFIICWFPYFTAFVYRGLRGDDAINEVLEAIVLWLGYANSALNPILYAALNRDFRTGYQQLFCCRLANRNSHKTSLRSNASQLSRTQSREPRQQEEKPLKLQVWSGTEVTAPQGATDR
Method: as §1, §2

[3] = molecular target: T3, LTB4R (Homo sapiens, UniProt Q15722); test: NanoBRET screen HiBiT-LTB4R in HEK293
T3 construct: purchased Promega (in-house HiBiT-GPCR construct library, NanoBRET)
T3 sequence (Q15722 whole entry): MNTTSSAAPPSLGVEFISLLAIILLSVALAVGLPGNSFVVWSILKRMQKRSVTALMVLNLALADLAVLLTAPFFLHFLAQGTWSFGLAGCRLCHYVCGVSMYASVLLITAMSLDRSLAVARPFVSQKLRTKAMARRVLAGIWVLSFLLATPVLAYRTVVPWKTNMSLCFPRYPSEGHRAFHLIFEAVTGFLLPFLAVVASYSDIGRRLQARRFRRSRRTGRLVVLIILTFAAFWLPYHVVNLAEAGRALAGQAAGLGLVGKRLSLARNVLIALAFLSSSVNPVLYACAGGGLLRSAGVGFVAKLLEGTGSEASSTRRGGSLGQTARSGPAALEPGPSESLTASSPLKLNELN
Method: as §1, §2

[4] = molecular target: T4, OXER1 (Homo sapiens, UniProt Q8TDS5); test: NanoBRET screen HiBiT-OXER1 in HEK293
T4 construct: purchased Promega (in-house HiBiT-GPCR construct library, NanoBRET)
T4 sequence (Q8TDS5 whole entry): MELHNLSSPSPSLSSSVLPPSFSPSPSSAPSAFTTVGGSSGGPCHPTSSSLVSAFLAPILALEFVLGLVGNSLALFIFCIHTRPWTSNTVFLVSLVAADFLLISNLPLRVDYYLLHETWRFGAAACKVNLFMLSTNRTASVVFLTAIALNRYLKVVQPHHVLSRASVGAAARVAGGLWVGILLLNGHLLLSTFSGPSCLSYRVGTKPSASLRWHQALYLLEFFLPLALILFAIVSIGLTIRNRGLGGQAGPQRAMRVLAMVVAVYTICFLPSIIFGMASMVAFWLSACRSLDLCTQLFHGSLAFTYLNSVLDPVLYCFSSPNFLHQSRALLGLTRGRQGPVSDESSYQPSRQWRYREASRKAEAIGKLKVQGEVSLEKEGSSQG
Method: as §1, §2

[5] = molecular target: T5, VIPR1 (Homo sapiens, UniProt P32241); test: NanoBRET screen HiBiT-VIPR1 in HEK293
T5 construct: purchased Promega (in-house HiBiT-GPCR construct library, NanoBRET)
T5 sequence (P32241 31-457): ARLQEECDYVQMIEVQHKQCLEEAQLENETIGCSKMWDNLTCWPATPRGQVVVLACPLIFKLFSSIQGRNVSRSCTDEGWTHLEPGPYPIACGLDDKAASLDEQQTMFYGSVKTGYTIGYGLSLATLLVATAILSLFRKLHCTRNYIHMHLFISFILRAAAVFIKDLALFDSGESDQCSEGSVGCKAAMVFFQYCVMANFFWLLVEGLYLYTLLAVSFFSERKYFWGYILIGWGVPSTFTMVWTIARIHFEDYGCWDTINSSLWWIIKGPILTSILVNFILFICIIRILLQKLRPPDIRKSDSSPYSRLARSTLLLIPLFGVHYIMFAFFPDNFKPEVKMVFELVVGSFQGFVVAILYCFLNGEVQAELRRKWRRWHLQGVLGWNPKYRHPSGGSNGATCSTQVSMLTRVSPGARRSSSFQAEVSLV
Method: as §1, §2

[6] = molecular target: T6, MC3R (Homo sapiens, UniProt P41968); test: NanoBRET screen HiBiT-MC3R in HEK293
T6 construct: purchased Promega (in-house HiBiT-GPCR construct library, NanoBRET)
T6 sequence (P41968 whole entry): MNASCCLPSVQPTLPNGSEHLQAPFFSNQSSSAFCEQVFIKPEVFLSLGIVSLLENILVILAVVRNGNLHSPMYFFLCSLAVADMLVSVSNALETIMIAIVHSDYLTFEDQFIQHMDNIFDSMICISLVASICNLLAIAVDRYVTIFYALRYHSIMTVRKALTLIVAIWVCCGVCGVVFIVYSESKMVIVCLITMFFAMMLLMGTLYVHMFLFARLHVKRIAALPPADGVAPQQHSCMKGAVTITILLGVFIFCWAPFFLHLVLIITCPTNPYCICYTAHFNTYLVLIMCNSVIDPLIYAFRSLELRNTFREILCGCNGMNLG
Method: as §1, §2

| SMILES | NanoBRET Fold Response ([1]; ADRA2C, tracer 0.1μM) | NanoBRET Fold Response ([1]; ADRA2C, tracer 1μM) | NanoBRET Fold Response ([2]; HRH2, tracer 0.1μM) | NanoBRET Fold Response ([2]; HRH2, tracer 1μM) | NanoBRET Fold Response ([3]; LTB4R, tracer 0.1μM) | NanoBRET Fold Response ([3]; LTB4R, tracer 1μM) | NanoBRET Fold Response ([4]; OXER1, tracer 0.1μM) | NanoBRET Fold Response ([4]; OXER1, tracer 1μM) | NanoBRET Fold Response ([5]; VIPR1, tracer 0.1μM) | NanoBRET Fold Response ([5]; VIPR1, tracer 1μM) | NanoBRET Fold Response ([6]; MC3R, tracer 0.1μM) | NanoBRET Fold Response ([6]; MC3R, tracer 1μM) | also measured |
| --- | --- | --- | --- | --- | --- | --- | --- | --- | --- | --- | --- | --- | --- |
| O=C(CCc1ccc2n1[B-](F)(F)[N+]1=C(c3ccc[nH]3)C=CC1=C2)NCc1ccc(C(=O)NCCOCCOCCNCC(O)COc2cccc3ccccc23)cc1 (stereo not drawn) [Propranolol-3-NB590] |  |  |  |  |  |  |  |  |  |  |  |  | NanoBRET Fold Response ([1]; ADRA2C, 0.1μM): 0.95; NanoBRET Fold Response ([1]; ADRA2C, 1μM): 1.05; NanoBRET Fold Response ([2]; HRH2, 0.1μM): 1.12; NanoBRET Fold Response ([2]; HRH2, 1μM): 0.97; NanoBRET Fold Response ([3]; LTB4R, 0.1μM): 0.97; NanoBRET Fold Response ([3]; LTB4R, 1μM): 1.02; NanoBRET Fold Response ([4]; OXER1, 0.1μM): 1.09; NanoBRET Fold Response ([4]; OXER1, 1μM): 1.00; NanoBRET Fold Response ([5]; VIPR1, 0.1μM): 1.03; NanoBRET Fold Response ([5]; VIPR1, 1μM): 1.04; NanoBRET Fold Response ([6]; MC3R, 0.1μM): 1.05; NanoBRET Fold Response ([6]; MC3R, 1μM): 0.99 |
| O=C(CCc1ccc2n1[B-](F)(F)[N+]1=C(c3ccc[nH]3)C=CC1=C2)NCc1ccc(C(=O)NCCOCCC(=O)N[C@@H]2CC[C@@]3(O)[C@H]4Cc5ccc(O)c6c5[C@@]3(CCN4CC3CC3)[C@H]2O6)cc1 [Naltrexone-3-NB590] | 0.99 | 1.05 | 0.85 | 1.34 | 0.68 | 1.06 | 0.78 | 0.74 | 0.95 | 1.36 | 0.90 | 1.11 |  |
| N#CN=C(NCCCOc1cccc(CN2CCCCC2)c1)NCCNC(=O)CCOCCOCCOCCOCCNC(=O)CCc1ccc2n1[B-](F)(F)[N+]1=C(c3ccc[nH]3)C=CC1=C2 [Aminopotentidine-2-NB590] | 1.35 | 1.25 | 5.51 | 3.65 | 1.03 | 0.99 | 1.10 | 1.01 | 1.02 | 1.00 | 1.00 | 1.01 |  |
| COc1ccc2c(n1)c(CCNC(C)=O)cn2CCNC(=O)CCc1ccc2n1[B-](F)(F)[N+]1=C(c3ccc[nH]3)C=CC1=C2 [Azamelatonin-1-NB590] |  |  |  |  |  |  |  |  |  |  |  |  | NanoBRET Fold Response ([1]; 0.1μM tracer): 1.01; NanoBRET Fold Response ([1]; 1μM tracer): 0.79; NanoBRET Fold Response ([2]; 0.1μM tracer): 0.99; NanoBRET Fold Response ([2]; 1μM tracer): 0.99; NanoBRET Fold Response ([3]; 0.1μM tracer): 0.97; NanoBRET Fold Response ([3]; 1μM tracer): 0.97; NanoBRET Fold Response ([4]; 0.1μM tracer): 1.39; NanoBRET Fold Response ([4]; 1μM tracer): 1.06; NanoBRET Fold Response ([5]; 0.1μM tracer): 0.99; NanoBRET Fold Response ([5]; 1μM tracer): 1.21; NanoBRET Fold Response ([6]; 0.1μM tracer): 0.93; NanoBRET Fold Response ([6]; 1μM tracer): 1.22 |
| CC(C)N(CC[C@H](c1ccccc1)c1cc(CCNC(=O)c2ccc(CNC(=O)CCc3ccc4n3[B-](F)(F)[N+]3=C(c5ccc[nH]5)C=CC3=C4)cc2)ccc1O)C(C)C [Tolterodine-BZ-NB590] | 1.09 | 1.11 | 1.05 | 0.87 | 0.95 | 1.03 | 1.00 | 1.06 | 0.97 | 0.98 | 1.03 | 1.01 |  |
| CN1CCN(C2=Nc3cc(Cl)ccc3Nc3ccc(CNC(=O)CCOCCOCCOCCOCCNC(=O)CCc4ccc5n4[B-](F)(F)[N+]4=C(c6ccc[nH]6)C=CC4=C5)cc32)CC1 [Clozapine-b-2-NB590] |  |  |  |  |  |  |  |  |  |  |  |  | NanoBRET Fold Response ([1]; ADRA2C, 0.1μM tracer): 1.25; NanoBRET Fold Response ([1]; ADRA2C, 1μM tracer): 1.67; NanoBRET Fold Response ([2]; HRH2, 0.1μM tracer): 1.01; NanoBRET Fold Response ([2]; HRH2, 1μM tracer): 0.97; NanoBRET Fold Response ([3]; LTB4R, 0.1μM tracer): 1.04; NanoBRET Fold Response ([3]; LTB4R, 1μM tracer): 1.04; NanoBRET Fold Response ([4]; OXER1, 0.1μM tracer): 0.97; NanoBRET Fold Response ([4]; OXER1, 1μM tracer): 0.95; NanoBRET Fold Response ([5]; VIPR1, 0.1μM tracer): 1.12; NanoBRET Fold Response ([5]; VIPR1, 1μM tracer): 0.99; NanoBRET Fold Response ([6]; MC3R, 0.1μM tracer): 1.05; NanoBRET Fold Response ([6]; MC3R, 1μM tracer): 0.94 |
